Test results from US8084479B2, “Thiazole compounds and methods of use” (Amgen Inc., priority 2006, dated 2011).

Molecular target: PKBα (Homo sapiens, UniProt P31749)
Assay: PKB kinase assay (P33-labeled ATP, peptide substrate, filter plate)
Format: biochemical
Conditions: PKBα enzyme (full length or kinase domain with pleckstrin domain deleted)
Excerpt: The kinase assay for evaluating PKB activity comprises active PKB enzymes, a PKB specific substrate, and P^33-labeled ATP. […] The phosphorylated substrate was captured by a phosphocellulose membrane filter plate (MLLIPORE) and measured by a Wallac Microbeta liquid scintillation counter (Perkin Elmer).

PKBα, sequence (P31749 118-480 limits assumed): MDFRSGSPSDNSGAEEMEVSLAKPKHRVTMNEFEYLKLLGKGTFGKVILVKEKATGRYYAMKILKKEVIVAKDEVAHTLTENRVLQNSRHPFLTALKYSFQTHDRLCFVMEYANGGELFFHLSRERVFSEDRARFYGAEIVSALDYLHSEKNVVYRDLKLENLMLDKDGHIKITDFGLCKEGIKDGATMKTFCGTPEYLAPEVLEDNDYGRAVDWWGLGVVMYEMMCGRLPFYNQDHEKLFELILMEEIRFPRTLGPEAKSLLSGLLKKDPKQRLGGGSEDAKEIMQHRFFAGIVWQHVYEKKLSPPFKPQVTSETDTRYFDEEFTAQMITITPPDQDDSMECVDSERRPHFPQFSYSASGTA

SMILES | IC50
Cc1n[nH]c2ccc(-c3cnc(NC[C@@H](N)Cc4c[nH]c5ccccc45)s3)cc12 [Example 2, N—((S)-2-amino-3-(1H-indol-3-yl)propyl)-5-(3-methyl-1H-indazol-5-yl)thiazol-2-amine] | 0.05 to 1 µM
Cc1n[nH]c2ccc(-c3cnc(NC[C@@H](N)Cc4ccc(Cl)cc4)s3)cc12 [Example 3, N—((S)-2-amino-3-(4-chlorophenyl)propyl)-5-(3-methyl-1H-indazol-5-yl)thiazol-2-amine] | 0.05 to 1 µM
N[C@H](CNc1ncc(-c2ccc3cnccc3c2)s1)Cc1c[nH]c2ccccc12 [Example 5, N—((S)-2-amino-3-(1H-indol-3-yl)propyl)-5-(isoquinolin-6-yl)thiazol-2-amine] | 0.05 to 1 µM
Cc1nc(NC[C@@H](N)Cc2ccccc2)sc1-c1ccc2[nH]nc(C)c2c1 [Example 7, N—((S)-2-amino-3-phenylpropyl)-4-methyl-5-(3-methyl-1H-indazol-5-yl)thiazol-2-amine] | 1 to 10 µM
N[C@H](CNc1nc(-c2ccco2)c(-c2ccc3cnccc3c2)s1)Cc1ccc(C(F)(F)F)cc1 [Example 8, N—((S)-2-amino-3-(4-(trifluoromethyl)phenyl)propyl)-4-(furan-2-yl)-5-(isoquinolin-6-yl)thiazol-2-amine] | 0.05 to 1 µM
N[C@H](CNc1nc(-c2ccccc2)c(-c2ccc3cnccc3c2)s1)Cc1ccc(C(F)(F)F)cc1 [Example 9, N—((S)-2-amino-3-(4-(trifluoromethyl)phenyl)propyl)-5-(isoquinolin-6-yl)-4-phenylthiazol-2-amine] | 0.05 to 1 µM
COCc1nc(NC[C@@H](N)Cc2ccc(C(F)(F)F)cc2)sc1-c1ccc2[nH]nc(C)c2c1 [Example 15, N—((S)-2-amino-3-(4-(trifluoromethyl)phenyl)propyl)-4-(methoxymethyl)-5-(3-methyl-1H-indazol-5-yl)thiazol-2-amine] | 0.05 to 1 µM
COC(C)c1nc(NC[C@@H](N)Cc2ccc(C(F)(F)F)cc2)sc1-c1ccc2cnccc2c1 (stereo partly drawn) [Example 16, N—((S)-2-amino-3-(4-(trifluoromethyl)phenyl)propyl)-5-(isoquinolin-6-yl)-4-(1-methoxyethyl)thiazol-2-amine] | 0.05 to 1 µM
COCc1nc(N(C[C@@H](N)Cc2cccc(Cl)c2)C(C)=O)sc1-c1nc2ccncc2s1 [Example 17, N—((S)-2-amino-3-(3-chlorophenyl)propyl)-N-(4-(methoxymethyl)-5-(thiazolo[5,4-c]pyridin-2-yl)thiazol-2-yl)acetamide] | 1 to 10 µM
COCc1nc(NC[C@@H](N)Cc2cccc(Cl)c2)sc1-c1nc2ccncc2s1 [Example 18, N—((S)-2-amino-3-(3-chlorophenyl)propyl)-4-(methoxymethyl)-5-(thiazolo[5,4-c]pyridin-2-yl)thiazol-2-amine] | 1 to 10 µM
N[C@H](CNc1nc(COCC(F)(F)F)c(-c2nc3ccncc3s2)s1)Cc1cccc(Cl)c1 [Example 20, N—((S)-2-amino-3-(3-chlorophenyl)propyl)-5-(thiazolo[5,4-c]pyridin-2-yl)-4-((2,2,2-trifluoroethoxy)methyl)thiazol-2-amine] | 1 to 10 µM
CCc1nc(NC[C@@H](N)Cc2ccc(C(F)(F)F)cc2)sc1-c1nc2ccncc2s1 [Example 23, N—((S)-2-amino-3-(4-(trifluoromethyl)phenyl)propyl)-4-ethyl-5-(thiazolo[5,4-c]pyridin-2-yl)thiazol-2-amine] | 0.05 to 1 µM
Cc1nc(NC[C@@H](N)Cc2ccc(C(F)(F)F)cc2)sc1-c1nc2ccncc2s1 [Example 24, N—((S)-2-amino-3-(4-(trifluoromethyl)phenyl)propyl)-4-methyl-5-(thiazolo[5,4-c]pyridin-2-yl)thiazol-2-amine] | 0.05 to 1 µM
COCc1nc(N(C[C@@H](N)Cc2ccc(Cl)cc2)C(C)=O)sc1-c1nc2ccncc2s1 [Example 25, N—((S)-2-amino-3-(4-chlorophenyl)propyl)-N-(4-(methoxymethyl)-5-(thiazolo[5,4-c]pyridin-2-yl)thiazol-2-yl)acetamide] | 0.05 to 1 µM
COCc1nc(N(C[C@@H](N)Cc2ccc(C(F)(F)F)cc2)C(C)=O)sc1-c1nc2ccncc2s1 [Example 26, N—((S)-2-amino-3-(4-(trifluoromethyl)phenyl)propyl)-N-(4-(methoxymethyl)-5-(thiazolo[5,4-c]pyridin-2-yl)thiazol-2-yl)acetamide] | 1 to 10 µM
COCc1nc(NC[C@@H](N)Cc2c[nH]c3ccccc23)sc1-c1nc2ccncc2s1 [Example 27, N—((S)-2-amino-3-(1H-indol-3-yl)propyl)-4-(methoxymethyl)-5-(thiazolo[5,4-c]pyridin-2-yl)thiazol-2-amine] | 0.05 to 1 µM
c1ccc(CNc2ncc(-c3nc4ccncc4s3)s2)cc1 [Example 28, N-benzyl-5-(thiazolo[5,4-c]pyridin-2-yl)thiazol-2-amine] | 1 to 10 µM
N[C@@H](Cc1cccc(C(F)(F)F)c1)CN(Cc1ccccc1)c1ncc(-c2nc3ccncc3s2)s1 [Example 29, N—((S)-2-amino-3-(3-(trifluoromethyl)phenyl)propyl)-N-benzyl-5-(thiazolo[5,4-c]pyridin-2-yl)thiazol-2-amine] | 1 to 10 µM
N[C@@H](Cc1ccc(C(F)(F)F)cc1)CN(Cc1ccccc1)c1ncc(-c2nc3ccncc3s2)s1 [Example 30, N—((S)-2-amino-3-(4-(trifluoromethyl)phenyl)propyl)-N-benzyl-5-(thiazolo[5,4-c]pyridin-2-yl)thiazol-2-amine] | 0.05 to 1 µM
N[C@H](CNc1ncc(-c2nc3ccncc3s2)s1)Cc1cccc(C(F)(F)F)c1 [Example 31, N—((S)-2-amino-3-(3-(trifluoromethyl)phenyl)propyl)-5-(thiazolo[5,4-c]pyridin-2-yl)thiazol-2-amine] | 1 to 10 µM
COCc1nc(N(C[C@H](Cc2ccc(C(F)(F)F)cc2)NCCN2CCOCC2)C(C)=O)sc1-c1nc2ccncc2s1 [Example 33, N-(4-(methoxymethyl)-5-(thiazolo[5,4-c]pyridin-2-yl)thiazol-2-yl)-N—((S)-2-(2-morpholinoethylamino)-3-(4-(trifluoromethyl)phenyl)propyl)acetamide] | > 10 µM

Now from value to compound:

IC50 | SMILES
0.05 to 1 µM | N[C@H](CNc1ncc(-c2ccc3c(c2)/C(=C/c2ccco2)C(=O)N3)s1)Cc1c[nH]c2ccccc12 (stereo in doubt) [Example 72, (E)- and (Z)-5-(2-((S)-2-amino-3-(1H-indol-3-yl)propylamino)thiazol-5-yl)-3-(furan-2-ylmethylene)indolin-2-one ditrifluoroacetates]
0.05 to 1 µM | N[C@H](CNc1ncc(-c2ccc3c(c2)/C(=C\c2cnc[nH]2)C(=O)N3)s1)Cc1c[nH]c2ccccc12 (stereo in doubt) [Example 73, (E)-3-((1H-imidazol-5-yl)methylene)-6-(2-((S)-2-amino-3-(1H-indol-3-yl)propylamino)thiazol-5-yl)indolin-2-one ditrifluoroacetates]
0.05 to 1 µM | Cc1n[nH]c2ccc(-c3cnc(NC[C@@H](N)Cc4ccccc4)s3)cc12 [Example 1, N—((S)-2-amino-3-phenylpropyl)-5-(3-methyl-1H-indazol-5-yl)thiazol-2-amine]
< 0.05 µM | N[C@H](CNc1ncc(-c2ccc3[nH]ncc3c2)s1)Cc1ccc(Cl)cc1 [Example 4, N—((S)-2-amino-3-(4-chlorophenyl)propyl)-5-(1H-indazol-5-yl)thiazol-2-amine]
< 0.05 µM | N[C@H](CNc1ncc(-c2ccc3cnccc3c2)s1)Cc1ccc(C(F)(F)F)cc1 [Example 6, N—((S)-2-amino-3-(4-(trifluoromethyl)phenyl)propyl)-5-(isoquinolin-6-yl)thiazol-2-amine]
< 0.05 µM | N[C@H](CNc1nc(CO)c(-c2ccc3cnccc3c2)s1)Cc1ccc(C(F)(F)F)cc1 [Example 10, (2-((S)-2-amino-3-(4-(trifluoromethyl)phenyl)propylamino)-5-(isoquinolin-6-yl)thiazol-4-yl)methanol]
< 0.05 µM | Cc1n[nH]c2ccc(-c3sc(NC[C@@H](N)Cc4ccc(C(F)(F)F)cc4)nc3CO)cc12 [Example 11, (2-((S)-2-amino-3-(4-(trifluoromethyl)phenyl)propylamino)-5-(3-methyl-1H-indazol-5-yl)thiazol-4-yl)methanol]
< 0.05 µM | N[C@H](CNc1nc(CO)c(-c2ccc3[nH]ncc3c2)s1)Cc1ccc(C(F)(F)F)cc1 [Example 12, (2-((S)-2-amino-3-(4-(trifluoromethyl)phenyl)propylamino)-5-(1H-indazol-5-yl)thiazol-4-yl)methanol]
< 0.05 µM | COCc1nc(NC[C@@H](N)Cc2ccc(C(F)(F)F)cc2)sc1-c1ccc2cnccc2c1 [Example 13, N—((S)-2-amino-3-(4-(trifluoromethyl)phenyl)propyl)-5-(isoquinolin-6-yl)-4-(methoxymethyl)thiazol-2-amine]
< 0.05 µM | COCc1nc(NC[C@@H](N)Cc2ccc(C(F)(F)F)cc2)sc1-c1ccc2[nH]ncc2c1 [Example 14, N—((S)-2-amino-3-(4-(trifluoromethyl)phenyl)propyl)-5-(1H-indazol-5-yl)-4-(methoxymethyl)thiazol-2-amine]
< 0.05 µM | COCc1nc(NC[C@@H](N)Cc2ccc(Cl)cc2)sc1-c1nc2ccncc2s1 [Example 19, N—((S)-2-amino-3-(4-chlorophenyl)propyl)-4-(methoxymethyl)-5-(thiazolo[5,4-c]pyridin-2-yl)thiazol-2-amine]
< 0.05 µM | COCc1nc(NC[C@@H](N)Cc2ccc(C(F)(F)F)cc2)sc1-c1nc2ccncc2s1 [Example 22, N—((S)-2-amino-3-(4-(trifluoromethyl)phenyl)propyl)-4-(methoxymethyl)-5-(thiazolo[5,4-c]pyridin-2-yl)thiazol-2-amine]
< 0.05 µM | N[C@H](CNc1ncc(-c2nc3ccncc3s2)s1)Cc1ccc(C(F)(F)F)cc1 [Example 32, N—((S)-2-amino-3-(4-(trifluoromethyl)phenyl)propyl)-5-(thiazolo[5,4-c]pyridin-2-yl)thiazol-2-amine]
